Converted amounts (≈) assume the structure as drawn. Where two headings read alike, the source gives them in different places. Values belong to the molecule of their own block, whether it stands above or below them.
Columns and labels:
Assay in all cases: MIC (Minimum Inhibitory Concentration)
Assay type in all cases: cell-based
Candida albicans = tested on: Candida albicans
From the text: (§1) In addition they may be used for combatting plant diseases, in particular as fungicides. A list of MIC (Minimum Inhibitory Concentration) values for a number of microorganisms is listed herebelow. The figures in the column headings refer to the compounds prepared according to the experimental examples in comparison with the spectrum of 1-[2-(2,4-dichlorophenyl)-2-{(2,4-dichlorophenyl)-methoxy} -ethyl7-1H-imidazole (better known under the name of miconazole, c.f. Merck Index 9th Ed. page 6047) or natamycin (pimaricin, c.f. Merck Index 9th Ed. page 7233).

Trichophyton rubrum = tested on: Trichophyton rubrum
From the text: as §1

Trichophyton violoceum = conditions: read-out: MIC values
From the text: as §1

[1] = tested on: Trichophyton schoenleinii; conditions: read-out: MIC values
From the text: as §1

Trichophyton verrucosum = tested on: Trichophyton verrucosum
From the text: as §1

Pasteurella multocida = conditions: read-out: MIC values
From the text: as §1

[2] = tested on: Streptococcus haemolyticus; conditions: read-out: MIC values
From the text: as §1

[3] = tested on: Trichophyton mentagrophytus
From the text: as §1

Trichophyton quickeaneum = conditions: read-out: MIC values
From the text: as §1

Trichophyton tonsurans = conditions: read-out: MIC values
From the text: as §1

Trichophyton equinum = tested on: Trichophyton equinum
From the text: as §1

[4] = read-out: MIC values, Candida albicans A 7
[5] = read-out: MIC values, Candida albicans A 3140
[6] = read-out: MIC values, Candida albicans A 3141
[7] = read-out: MIC values, Candida albicans A 3142
[8] = read-out: MIC values, Candida albicans A 3143
[9] = read-out: MIC values, Candida albicans A 3144
[10] = read-out: MIC values, Candida albicans A 3145
[11] = read-out: MIC values, Candida albicans A 3165
[12] = read-out: MIC values, Candida albicans A 3166
[13] = read-out: MIC values, Candida albicans A 3167
[14] = read-out: MIC values, Candida albicans A 3168
[15] = read-out: MIC values, Candida albicans A 3169
[16] = read-out: MIC values, Candida albicans A 3171
[17] = read-out: MIC values, Candida albicans A 3184
[18] = read-out: MIC values, Candida albicans A 3190
[19] = read-out: MIC values, Candida albicans A 3191
[20] = read-out: MIC values, Candida albicans A 3192
[21] = read-out: MIC values, Candida albicans A 3194
[22] = read-out: MIC values, Candida albicans A 3196
[23] = read-out: MIC values, Trichophyton rubrum 218-65
[24] = read-out: MIC values, Trichophyton rubrum 494-62
[25] = read-out: MIC values, Trichophyton rubrum A 810
[26] = read-out: MIC values, Trichophyton verrucosum 134-66
[27] = read-out: MIC values, Trichophyton verrucosum A 2922
[28] = read-out: MIC values, Trichophyton mentagrophytus 367-68
[29] = read-out: MIC values, Trichophyton mentagrophytus 421-67
[30] = read-out: MIC values, Trichophyton mentagrophytus A 3252
[31] = read-out: MIC values, Trichophyton mentagrophytus R 177
[32] = read-out: MIC values, Trichophyton mentagrophytus R 178
[33] = read-out: MIC values, Trichophyton equinum 182-76
[34] = read-out: MIC values, Trichophyton equinum 441-51

SMILES: [C-]#[N+]C(=C1CCOCC1)S(=O)(=O)c1ccc(C)cc1 [Example 14a, a-(tetrahydropyran-4-ylidene)-a-(4-toluenesulphonyl)-methyl-isocyanide]
MIC (Candida albicans; [4]): 12.5 µg/mL (≈ 45.1 µM) | MIC (Candida albicans; [5]): 12.5 µg/mL (≈ 45.1 µM) | MIC (Candida albicans; [6]): 12.5 µg/mL (≈ 45.1 µM) | MIC (Candida albicans; [7]): 12.5 µg/mL (≈ 45.1 µM) | MIC (Candida albicans; [8]): 12.5 µg/mL (≈ 45.1 µM) | MIC (Candida albicans; [9]): 25 µg/mL (≈ 90.1 µM) | MIC (Candida albicans; [10]): 12.5 µg/mL (≈ 45.1 µM) | MIC (Candida albicans; [11]): 12.5 µg/mL (≈ 45.1 µM) | MIC (Candida albicans; [12]): 6 µg/mL (≈ 21.6 µM) | MIC (Candida albicans; [13]): 6 µg/mL (≈ 21.6 µM) | MIC (Candida albicans; [14]): 6 µg/mL (≈ 21.6 µM) | MIC (Candida albicans; [15]): 6 µg/mL (≈ 21.6 µM) | MIC (Candida albicans; [16]): 6 µg/mL (≈ 21.6 µM) | MIC (Candida albicans; [17]): 12.5 µg/mL (≈ 45.1 µM) | MIC (Candida albicans; [18]): 12.5 µg/mL (≈ 45.1 µM) | MIC (Candida albicans; [19]): 12.5 µg/mL (≈ 45.1 µM) | MIC (Candida albicans; [20]): 12.5 µg/mL (≈ 45.1 µM) | MIC (Candida albicans; [21]): 12.5 µg/mL (≈ 45.1 µM) | MIC (Candida albicans; [22]): 12.5 µg/mL (≈ 45.1 µM) | MIC (Trichophyton rubrum; [23]): 3 µg/mL (≈ 10.8 µM) | MIC (Trichophyton rubrum; [24]): 25 µg/mL (≈ 90.1 µM) | MIC (Trichophyton rubrum; [25]): 12.5 µg/mL (≈ 45.1 µM) | MIC (Trichophyton violoceum; Trichophyton): 12.5 µg/mL (≈ 45.1 µM) | MIC ([1]; Trichophyton schoenleinii): 6 µg/mL (≈ 21.6 µM) | MIC (Trichophyton verrucosum; [26]): 3 µg/mL (≈ 10.8 µM) | MIC (Trichophyton verrucosum; [27]): 3 µg/mL (≈ 10.8 µM) | MIC (Pasteurella multocida; Pasteurella multocida): 6 µg/mL (≈ 21.6 µM) | MIC ([2]; Streptococcus): 25 µg/mL (≈ 90.1 µM) | MIC [3, 28]: 25 µg/mL (≈ 90.1 µM) | MIC [3, 29]: 25 µg/mL (≈ 90.1 µM) | MIC [3, 30]: 25 µg/mL (≈ 90.1 µM) | MIC [3, 31]: 12.5 µg/mL (≈ 45.1 µM) | MIC [3, 32]: 100 µg/mL (≈ 361 µM) | MIC (Trichophyton quickeaneum; Trichophyton): 25 µg/mL (≈ 90.1 µM) | MIC (Trichophyton tonsurans; Trichophyton tonsurans): 0.75 µg/mL (≈ 2.7 µM) | MIC (Trichophyton equinum; [33]): 25 µg/mL (≈ 90.1 µM) | MIC (Trichophyton equinum; [34]): 6 µg/mL (≈ 21.6 µM)

MIC (Candida albicans; Candida albicans A 7, read-out: MIC values): 6 µg/mL (≈ 21.6 µM) | MIC (Candida albicans; Candida albicans A 3140, read-out: MIC values): 6 µg/mL (≈ 21.6 µM) | MIC (Candida albicans; Candida albicans A 3141, read-out: MIC values): 12.5 µg/mL (≈ 45.1 µM) | MIC (Candida albicans; Candida albicans A 3142, read-out: MIC values): 6 µg/mL (≈ 21.6 µM) | MIC (Candida albicans; Candida albicans A 3143, read-out: MIC values): 6 µg/mL (≈ 21.6 µM) | MIC (Candida albicans; Candida albicans A 3144, read-out: MIC values): 25 µg/mL (≈ 90.1 µM) | MIC (Candida albicans; Candida albicans A 3145, read-out: MIC values): 12.5 µg/mL (≈ 45.1 µM) | MIC (Candida albicans; Candida albicans A 3165, read-out: MIC values): 6 µg/mL (≈ 21.6 µM) | MIC (Candida albicans; Candida albicans A 3166, read-out: MIC values): 6 µg/mL (≈ 21.6 µM) | MIC (Candida albicans; Candida albicans A 3167, read-out: MIC values): 6 µg/mL (≈ 21.6 µM) | MIC (Candida albicans; Candida albicans A 3168, read-out: MIC values): 6 µg/mL (≈ 21.6 µM) | MIC (Candida albicans; Candida albicans A 3169, read-out: MIC values): 6 µg/mL (≈ 21.6 µM) | MIC (Candida albicans; Candida albicans A 3171, read-out: MIC values): 6 µg/mL (≈ 21.6 µM) | MIC (Candida albicans; Candida albicans A 3184, read-out: MIC values): 6 µg/mL (≈ 21.6 µM) | MIC (Candida albicans; Candida albicans A 3190, read-out: MIC values): 12.5 µg/mL (≈ 45.1 µM) | MIC (Candida albicans; Candida albicans A 3191, read-out: MIC values): 25 µg/mL (≈ 90.1 µM) | MIC (Candida albicans; Candida albicans A 3192, read-out: MIC values): 6 µg/mL (≈ 21.6 µM) | MIC (Candida albicans; Candida albicans A 3194, read-out: MIC values): 12.5 µg/mL (≈ 45.1 µM) | MIC (Candida albicans; Candida albicans A 3196, read-out: MIC values): 25 µg/mL (≈ 90.1 µM) | MIC (Trichophyton rubrum; Trichophyton rubrum 218-65, read-out: MIC values): 3 µg/mL (≈ 10.8 µM) | MIC (Trichophyton rubrum; Trichophyton rubrum 494-62, read-out: MIC values): 25 µg/mL (≈ 90.1 µM) | MIC (Trichophyton rubrum; Trichophyton rubrum A 810, read-out: MIC values): 12.5 µg/mL (≈ 45.1 µM) | MIC (Trichophyton violoceum; Trichophyton violoceum 442-62): 12.5 µg/mL (≈ 45.1 µM) | MIC ([1]; Trichophyton schoenleinii 435-63): 6 µg/mL (≈ 21.6 µM) | MIC (Trichophyton verrucosum; Trichophyton verrucosum 134-66, read-out: MIC values): 3 µg/mL (≈ 10.8 µM) | MIC (Trichophyton verrucosum; Trichophyton verrucosum A 2922, read-out: MIC values): 1.5 µg/mL (≈ 5.41 µM) | MIC (Pasteurella multocida; Pasteurella multocida A 723): 6 µg/mL (≈ 21.6 µM) | MIC ([3]; Trichophyton mentagrophytus 367-68, read-out: MIC values): 25 µg/mL (≈ 90.1 µM) | MIC ([3]; Trichophyton mentagrophytus 421-67, read-out: MIC values): 25 µg/mL (≈ 90.1 µM) | MIC ([3]; Trichophyton mentagrophytus A 3252, read-out: MIC values): 25 µg/mL (≈ 90.1 µM) | MIC ([3]; Trichophyton mentagrophytus R 177, read-out: MIC values): 25 µg/mL (≈ 90.1 µM) | MIC ([3]; Trichophyton mentagrophytus R 178, read-out: MIC values): 50 µg/mL (≈ 180 µM) | MIC (Trichophyton quickeaneum; Trichophyton quickeaneum A 2040): 25 µg/mL (≈ 90.1 µM) | MIC (Trichophyton tonsurans; Trichophyton tonsurans 561-50): 0.4 µg/mL (≈ 1.44 µM) | MIC (Trichophyton equinum; Trichophyton equinum 182-76, read-out: MIC values): 25 µg/mL (≈ 90.1 µM) | MIC (Trichophyton equinum; Trichophyton equinum 441-51, read-out: MIC values): 3 µg/mL (≈ 10.8 µM)
SMILES: [C-]#[N+]C(C1=CCOCC1)S(=O)(=O)c1ccc(C)cc1 (stereo not drawn) [Example 14b, α-(2,3-dihydro-6H-pyran-4-yl)-a-(4-toluenesulphonyl)-methylisocyanide]
MIC ([2]; Streptococcus haemolyticus A 1088): 100 µg/mL (≈ 361 µM)

SMILES: [C-]#[N+]C(=C1CCSCC1)S(=O)(=O)c1ccc(C)cc1 [Example 16a, a-(thian-4-ylidene)-a-(4-toluenesulphonyl)-methylisocyanide]
MIC (Candida albicans; [4]): 6 µg/mL (≈ 20.4 µM) | MIC (Candida albicans; [5]): 6 µg/mL (≈ 20.4 µM) | MIC (Candida albicans; [6]): 6 µg/mL (≈ 20.4 µM) | MIC (Candida albicans; [7]): 6 µg/mL (≈ 20.4 µM) | MIC (Candida albicans; [8]): 12.5 µg/mL (≈ 42.6 µM) | MIC (Candida albicans; [9]): 12.5 µg/mL (≈ 42.6 µM) | MIC (Candida albicans; [10]): 12.5 µg/mL (≈ 42.6 µM) | MIC (Candida albicans; [11]): 6 µg/mL (≈ 20.4 µM) | MIC (Candida albicans; [12]): 3 µg/mL (≈ 10.2 µM) | MIC (Candida albicans; [13]): 3 µg/mL (≈ 10.2 µM) | MIC (Candida albicans; [14]): 3 µg/mL (≈ 10.2 µM) | MIC (Candida albicans; [15]): 12.5 µg/mL (≈ 42.6 µM) | MIC (Candida albicans; [16]): 6 µg/mL (≈ 20.4 µM) | MIC (Candida albicans; [17]): 12.5 µg/mL (≈ 42.6 µM) | MIC (Candida albicans; [18]): 25 µg/mL (≈ 85.2 µM) | MIC (Candida albicans; [19]): 25 µg/mL (≈ 85.2 µM) | MIC (Candida albicans; [20]): 25 µg/mL (≈ 85.2 µM) | MIC (Candida albicans; [21]): 25 µg/mL (≈ 85.2 µM) | MIC (Candida albicans; [22]): 25 µg/mL (≈ 85.2 µM) | MIC (Trichophyton rubrum; [23]): 6 µg/mL (≈ 20.4 µM) | MIC (Trichophyton rubrum; [24]): 25 µg/mL (≈ 85.2 µM) | MIC (Trichophyton rubrum; [25]): 3 µg/mL (≈ 10.2 µM) | MIC (Trichophyton violoceum; Trichophyton): 6 µg/mL (≈ 20.4 µM) | MIC ([1]; Trichophyton schoenleinii): 6 µg/mL (≈ 20.4 µM) | MIC (Trichophyton verrucosum; [26]): 3 µg/mL (≈ 10.2 µM) | MIC (Trichophyton verrucosum; [27]): 1.5 µg/mL (≈ 5.11 µM) | MIC (Pasteurella multocida; Pasteurella multocida): 6 µg/mL (≈ 20.4 µM) | MIC ([2]; Streptococcus): 25 µg/mL (≈ 85.2 µM) | MIC [3, 28]: 25 µg/mL (≈ 85.2 µM) | MIC [3, 29]: 50 µg/mL (≈ 170 µM) | MIC [3, 30]: 25 µg/mL (≈ 85.2 µM) | MIC [3, 31]: 12.5 µg/mL (≈ 42.6 µM) | MIC [3, 32]: 100 µg/mL (≈ 341 µM) | MIC (Trichophyton quickeaneum; Trichophyton): 12.5 µg/mL (≈ 42.6 µM) | MIC (Trichophyton tonsurans; Trichophyton tonsurans): 0.4 µg/mL (≈ 1.36 µM) | MIC (Trichophyton equinum; [33]): 25 µg/mL (≈ 85.2 µM) | MIC (Trichophyton equinum; [34]): 3 µg/mL (≈ 10.2 µM)

Reference: patent publication EP0007672A1, “Isocyanoalkenes, process and useful intermediates for their preparation, pharmaceutical and fungicidal preparations containing those isocyanoalkenes and the use of the fungicidal preparations in agriculture” (GIST-BROCADES N.V., priority 1978, dated 1980)
